Measured values as given in patent US9920075B2, “Triazolopyridine and triazolopyrimidine inhibitors of myeloperoxidase” (BRISTOL-MYERS SQUIBB COMPANY, priority 2014, dated 2018).

How the values were obtained:
Type in all cases: biochemical
[1] = target: T1, myeloperoxidase (MPO) (Homo sapiens, UniProt P05164); test: MPO peroxidation assay (Amplex Red assay)
T1 sequence (P05164 49-745): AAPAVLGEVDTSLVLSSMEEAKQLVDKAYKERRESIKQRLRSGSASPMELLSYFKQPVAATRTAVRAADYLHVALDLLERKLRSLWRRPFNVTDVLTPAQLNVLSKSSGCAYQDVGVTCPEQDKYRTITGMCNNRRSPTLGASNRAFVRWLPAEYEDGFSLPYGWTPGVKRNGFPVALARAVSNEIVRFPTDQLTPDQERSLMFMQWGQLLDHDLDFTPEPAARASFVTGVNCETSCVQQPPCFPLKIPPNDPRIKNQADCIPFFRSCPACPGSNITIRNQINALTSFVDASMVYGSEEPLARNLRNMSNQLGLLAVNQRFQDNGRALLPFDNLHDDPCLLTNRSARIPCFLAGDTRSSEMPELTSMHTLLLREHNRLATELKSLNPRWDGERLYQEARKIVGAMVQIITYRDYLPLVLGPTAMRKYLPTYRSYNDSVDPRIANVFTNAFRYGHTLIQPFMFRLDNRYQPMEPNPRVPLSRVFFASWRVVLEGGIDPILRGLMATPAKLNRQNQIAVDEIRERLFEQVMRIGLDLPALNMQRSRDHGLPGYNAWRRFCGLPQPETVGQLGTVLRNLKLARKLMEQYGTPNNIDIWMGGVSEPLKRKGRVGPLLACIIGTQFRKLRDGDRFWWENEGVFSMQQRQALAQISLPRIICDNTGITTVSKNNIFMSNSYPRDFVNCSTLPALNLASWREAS
Protocol: MPO Peroxidation Assay (Amplex Red Assay)
MPO peroxidation activity was measured in 100 mM KPi (pH 7.4) by utilizing the non-fluorescent reagent Amplex Red (Invitrogen Cat. #A12222) which can be oxidized to the highly fluorescent resorufin. Amplex Red is oxidized by the peroxidase action of MPO to resorufin. […] Enzyme and compound were preincubated for ten minutes at room temperature.
After the ten minute preincubation, 25 μL of an Amplex Red mixture containing 200 μM Amplex Red and 10 mM H2O2 was added to the plate.
(§1) IC50 values were calculated by determining the slope of the linear portion of the kinetic trace (180-540 secs), and using that calculated slope to determine % inhibition occurring at each concentration of inhibitor using the following equation:
(§2) [formula] where A=minimal Y value (activity level of inhibited sample), B=maximal Y value (activity level of uninhibited sample), C=Log IC50, D=Hill Slope, x=concentration of inhibitor. MPO Chlorination Assay (APF Assay)

[2] = target: T1, myeloperoxidase (MPO); test: MPO chlorination assay (APF assay)
Protocol: as §2
MPO chlorination activity was measured in 100 mM KPi (pH 7.4) by utilizing the non-fluorescent reagent Aminophenyl fluorescein (APF, Invitrogen Cat. #A36003). APF is cleaved by (—OCl) to yield the fluorescent compound fluorescein. […] Enzyme, inhibitor, and chloride were preincubated for ten minutes at room temperature.
After the ten minute preincubation, 25 μL of an APF mixture containing […], 120 mM NaCl and 10 μM H2O2 was added to the plate using the internal dispensing system of a Hammatsu FDSS 6000. […] IC50 values for inhibitors were calculated by taking the slope of the linear portion of the kinetic measurement (20 seconds to ˜80-120 secs).
as §1
(§3) [formula] where A=minimal Y value (activity level of inhibited sample), B=maximal Y value (activity level of uninhibited sample), C=Log IC50, D=Hill Slope, x=concentration of inhibitor. EPX Bromination Assay

[3] = target: T2, EPX (Homo sapiens, UniProt P11678); test: EPX bromination assay; conditions: EPX bromination, 100 mM KPi pH 7.4, ten minute preincubation; read-out: EPX IC50
T2 construct: purchased Lee Biosolutions 342-60
T2 sequence (P11678 251-715 limits assumed): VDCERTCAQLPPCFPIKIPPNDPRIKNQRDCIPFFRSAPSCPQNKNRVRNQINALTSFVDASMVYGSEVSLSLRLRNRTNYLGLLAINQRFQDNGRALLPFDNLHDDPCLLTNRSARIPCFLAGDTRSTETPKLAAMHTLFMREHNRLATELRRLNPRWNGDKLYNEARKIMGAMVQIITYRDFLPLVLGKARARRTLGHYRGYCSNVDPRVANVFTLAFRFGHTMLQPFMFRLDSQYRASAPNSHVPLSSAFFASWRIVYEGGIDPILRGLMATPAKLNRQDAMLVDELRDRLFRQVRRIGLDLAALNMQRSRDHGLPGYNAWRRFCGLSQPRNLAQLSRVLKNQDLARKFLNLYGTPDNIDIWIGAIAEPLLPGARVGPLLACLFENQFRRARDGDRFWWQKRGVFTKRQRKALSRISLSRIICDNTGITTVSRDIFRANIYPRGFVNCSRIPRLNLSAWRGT
T2 sequence (P11678 140-250 limits assumed): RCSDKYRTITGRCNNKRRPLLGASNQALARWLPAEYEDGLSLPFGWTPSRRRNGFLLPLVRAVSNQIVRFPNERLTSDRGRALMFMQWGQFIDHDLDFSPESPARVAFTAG
Protocol: as §3
EPX bromination activity was measured in 100 mM KPi (pH 7.4) by monitoring the H2O2 catalyzed formation of 3-bromo tyrosine from tyrosine and potassium bromide. […] Enzyme and compound were preincubated for ten minutes at room temperature.
The reaction was allowed to proceed for 15 minutes, at which time it was quenched with 10 μL of 20% TCA. The final concentrations of all components were 0.3 μM EPX, 100 μM tyrosine, […], 5 μM H2O2, 0.1% DMSO, 2.0% TCA.
[formula] where A=minimal Y value (activity level of inhibited sample), B=maximal Y value (activity level of uninhibited sample), C=Log IC50, D=Hill Slope, x=concentration of inhibitor.
The column was maintained at 60° C. Samples were eluted using a gradient of 0%-100% B over 2.5 minutes, followed by equilibration with 100% A for 1 minute where A consisted of 0.1% TFA and B consisted of 90% MeOH/0.1% TFA at a flow rate of 0.6 mL/min.

[4] = MPO peroxidation, 100 mM KPi pH 7.4, ten minute preincubation, read-out: Amplex Red Assay IC50 value
[5] = MPO chlorination, 100 mM KPi pH 7.4, ten minute preincubation, read-out: APF Assay IC50 value
[6] = MPO peroxidation (Amplex Red), ranges given, read-out: MPO peroxidation assay IC50 values (binned)

Compound | IC50 [1, 4] [nM] | IC50 [2, 5] [nM] | IC50 [1, 6] [nM] | other results
CCn1nc(COc2cc(N)nc3[nH]nnc23)cc1C(F)(F)F [Example 6, 7-((1-Ethyl-5-(trifluoromethyl)-1H-pyrazol-3-yl)methoxy)-3H-[1,2,3]triazolo[4,5-b]pyridin-5-amine] | 20 | 130 |  | IC50 [3]: 70 nM
Cc1oc(-c2ccc(S(C)(=O)=O)cc2)nc1CSc1cc(N)nc2[nH]nnc12 [Example 46, 7-((5-Methyl-2-(4-(methylsulfonyl)phenyl)oxazol-4-yl)methylthio)-3H-[1,2,3]triazolo[4,5-b]pyridin-5-amine] | 90 | 470 |  | 
Cc1nn(-c2cccc(F)c2)nc1COc1cc(N)nc2[nH]nnc12 [Example 12, 7-((2-(3-Fluorophenyl)-5-methyl-2H-1,2,3-triazol-4-yl)methoxy)-3H-[1,2,3]triazolo[4,5-b]pyridin-5-amine] | 20 | 80 |  | 
COc1cc(-c2nc(COc3cc(N)nc4[nH]nnc34)c(C)o2)ccc1Cl [Example 43, 7-((2-(4-Chloro-3-methoxyphenyl)-5-methyloxazol-4-yl)methoxy)-3H-[1,2,3]triazolo[4,5-b]pyridin-5-amine] | 760 | 1520 |  | 
COc1ccc(-n2nc(C)c(COc3cc(N)nc4[nH]nnc34)n2)cc1 [Example 11, 7-((2-(4-Methoxyphenyl)-5-methyl-2H-1,2,3-triazol-4-yl)methoxy)-3H-[1,2,3]triazolo[4,5-b]pyridin-5-amine] | 20 | 170 |  | IC50 [3]: 40 nM
Nc1cc(OCc2cncn2Cc2ccccc2)c2nn[nH]c2n1 [Example 28, 7-((1-Benzyl-1H-imidazol-5-yl)methoxy)-3H-[1,2,3]triazolo[4,5-b]pyridin-5-amine] | 2400 | 1190 |  | 
Nc1cc(OCC2COc3ccccc3C2)c2nn[nH]c2n1 (stereo not shown) [Example 34, 7-(Chroman-3-ylmethoxy)-3H-[1,2,3]triazolo[4,5-b]pyridin-5-amine] | 1390 | 790 |  | 
CCc1nn(-c2ccccc2)nc1COc1cc(N)nc2[nH]nnc12 [Example 57, 7-((5-Ethyl-2-phenyl-2H-1,2,3-triazol-4-yl)methoxy)-3H-[1,2,3]triazolo [4,5-b]pyridin-5-amine] | 80 | 320 |  | 
Nc1cc(OCC2COc3ccccc3O2)c2nn[nH]c2n1 (stereo not shown) [Example 32, 7-((2,3-Dihydrobenzo[b][1,4]dioxin-2-yl)methoxy)-3H-[1,2,3]triazolo[4,5-b]pyridin-5-amine] | 610 | 320 |  | 
Nc1cc(OCc2cc(-c3ccccc3)no2)c2nn[nH]c2n1 [Example 14, 7-((3-Phenylisoxazol-5-yl)methoxy)-3H-[1,2,3]triazolo[4,5-b]pyridin-5-amine] |  |  |  | IC50 ([1]; Amplex Red Assay IC50 value, MPO peroxidation, 100 mM KPi pH 7.4, ten minute preincubation): 120 nM; IC50 [2]: 120 nM
Nc1cc(OCc2nn(Cc3ccccc3)c3ccccc23)c2nn[nH]c2n1 [Example 53, 7-((1-Benzyl-1H-indazol-3-yl)methoxy)-3H-[1,2,3]triazolo[4,5-b]pyridin-5-amine] | 80 | 100 |  | 
Cc1oc(-c2ccc(Cl)cc2Cl)nc1COc1cc(N)nc2[nH]nnc12 [Example 39, 7-((2-(2,4-Dichlorophenyl)-5-methyloxazol-4-yl)methoxy)-3H-[1,2,3]triazolo[4,5-b]pyridin-5-amine] |  |  | ≤ 60 | 
Nc1cc(OCc2nn(-c3ccccc3)nc2CO)c2nn[nH]c2n1 [Example 64, (5-(((5-Amino-3H-[1,2,3]triazolo[4,5-b]pyridin-7-yl)oxy)methyl)-2-phenyl-2H-1,2,3-triazol-4-yl)methanol] |  |  |  | IC50 ([1]; MPO peroxidation assay IC50 values (binned), MPO peroxidation (Amplex Red), ranges given): 60 to 150 nM
COc1cccc(-n2nc(C)c(COc3cc(N)nc4[nH]nnc34)n2)c1 [Example 13, 7-((2-(3-Methoxyphenyl)-5-methyl-2H-1,2,3-triazol-4-yl)methoxy)-3H-[1,2,3]triazolo[4,5-b]pyridin-5-amine] | 30 | 100 |  | 

The next lines start with results.

IC50 [1, 4] [nM] | IC50 [2, 5] [nM] | IC50 [1, 6] [nM] | Compound | other results
110 | 50 |  | Nc1cc(OCc2cccnc2Cl)c2nn[nH]c2n1 [Example 90, 7-((2-Chloropyridin-3-yl)methoxy)-3H-[1,2,3]triazolo[4,5-b]pyridin-5-amine] | 
90 | 910 |  | Cc1nn(-c2ccc(N3CCNC(=O)C3)nc2)nc1COc1cc(N)nc2[nH]nnc12 [Example 61, 4-(5-(4-(((5-Amino-3H-[1,2,3]triazolo[4,5-b]pyridin-7-yl)oxy)methyl)-5-methyl-2H-1,2,3-triazol-2-yl)pyridin-2-yl)piperazin-2-one] | 
1080 | 640 |  | Nc1cc(OCC2CCN(C3=NC=CCN3)CC2)c2nn[nH]c2n1 [Example 85, 7-((1-(1,6-Dihydropyrimidin-2-yl)piperidin-4-yl)methoxy)-3H-[1,2,3]triazolo[4,5-b]pyridin-5-amine] | 
2030 | 1100 |  | CS(=O)(=O)N1CCCCC1COc1cc(N)nc2[nH]nnc12 (stereo not shown) [Example 86, 7-((1-(Methylsulfonyl)piperidin-2-yl)methoxy)-3H-[1,2,3]triazolo[4,5-b]pyridin-5-amine] | 
 |  | 150 to 1000 | Nc1nc(OCc2ccc(Cl)nc2)c2nn[nH]c2n1 [Example 120, 7-((6-chloropyridin-3-yl)methoxy)-3H-[1,2,3]triazolo[4,5-d]pyrimidin-5-amine] | 
 |  | 60 to 150 | COc1ccc(-c2cncc(COc3nc(N)nc4[nH]nnc34)c2)cc1 [Example 118, 7-((5-(4-methoxyphenyl)pyridin-3-yl)methoxy)-3H-[1,2,3]triazolo[4,5-d] pyrimidin-5-amine] | 
 |  | ≤ 60 | Cc1nn(Cc2ccccc2)nc1COc1cc(N)nc2[nH]nnc12 [Example 66, 7-((2-Benzyl-5-methyl-2H-1,2,3-triazol-4-yl)methoxy)-3H-[1,2,3]triazolo [4,5-b]pyridin-5-amine] | 
 |  | 150 to 1000 | Cc1nn(-c2ccc(Br)cc2)nc1COc1cc(N)nc2[nH]nnc12 [Example 58, 7-((2-(4-Bromophenyl)-5-methyl-2H-1,2,3-triazol-4-yl)methoxy)-3H-[1,2,3]triazolo[4,5-b]pyridin-5-amine] | 
 |  | 60 to 150 | Nc1cc(OCc2cnccc2Cl)c2nn[nH]c2n1 [Example 91, 7-((4-Chloropyridin-3-yl)methoxy)-3H-[1,2,3]triazolo[4,5-b]pyridin-5-amine] | 
 |  | ≤ 60 | N#Cc1nn(-c2ccccc2)nc1COc1cc(N)nc2[nH]nnc12 [Example 65, 5-(((5-Amino-3H-[1,2,3]triazolo[4,5-b]pyridin-7-yl)oxy)methyl)-2-phenyl-2H-1,2,3-triazole-4-carbonitrile] | 
 |  | 60 to 150 | Nc1nc(OCc2cccc3cccnc23)c2nn[nH]c2n1 [Example 114, 7-(quinolin-8-ylmethoxy)-3H-[1,2,3] triazolo[4,5-d]pyrimidin-5-amine] | 
